# Like-named read-outs stand apart in the source and are kept apart here.
# How the values were obtained:
# Format in all cases: cell-based, human
# [1] = system: phosphorylated histone H3; test: Immunoblot analysis of phosphorylated histone H3 in K562R cells; settings: FIG. 10
# Method: (§1) Cultured cells were lysed by use of well known lysing buffer, and total amount of proteins were determined by Bradford method. […] The separated proteins were then transferred to nitrocellulose membrane and non-specific binding was removed by TBST buffer (0.8% NaCl, 0.02% KCl, 25 mM Tris-HCl/pH 8.0 and 0.1% Tween-20) containing 4% skim milk. Antibodies including p-Plk-1, p-Chk-1, p-Chk-2, p-Cdc2, GAPDH, α-tubulin, β-tubulin, and p-histone H3 (purchased from Transduction Laboratories, Lexington, Ky., USA), were respectively dissolved in TBST buffer containing 2% skim milk and incubated with the separated protein bands at 4° C. for at least over night; followed by incubation with horseradish conjugated secondary antibodies at room temperature for about 30 min, and then detected by ECL chemiluminesance detection kit (Amersham Pharmacia Biotech, US).
# [2] = system: 81T/VGH cells; test: MTT cell viability assay on 81T/VGH cells; design: key to Cell viability (MTT reading), I / Cell viability (MTT reading), II / Cell viability (MTT reading), III / Cell viability (MTT reading), Average: absorbance at 570 nm; settings: 48 hours; for Cell viability (MTT reading), I: replicate I; for Cell viability (MTT reading), II: replicate II; for Cell viability (MTT reading), III: replicate III
# Method: (§2) Cell lines used in the present disclosure include human chronic myelogenous leukemia (CML) cell line K562, Imatinib-resistant K562 cell line K562R, human pancreatic carcinoma, epithelial-like cell line PANC-1, human pancreatic cancer cell line BxPc-3, human large cell lung cancer cell line SEG-1, human esophageal squamous cell carcinoma line 81T/VGH and human esophageal adenocarcinoma line BE-3. Each cell lines were cultured and maintained in Dulbecco's modified Eagle media (DMEM) supplemented with 10% fetal calf serum, 100 IU/ml penicillin, 100 μg/ml streptomycin, and 2 mM glutamine in 5% CO2 at 37° C.
# (§3) The absorbance of the solution at 570 nm was measured by spectrophotometer.
# [3] = system: p-Chk-1; test: Immunoblot analysis of p-Chk-1 in K562R cells; settings: FIG. 7
# Method: as §1
# [4] = system: BxPC-3 cells; test: Radiation treatment and clonogenic assay, BxPC-3 cells
# Description: (§4) The drugs were then washed out, and cells were subject to radiation treatment. Specifically, 6 MeV electron beam energy was delivered by a linear accelerator (Clinac 1800, Varian Associates, Inc., Palo Alto, Calif., USA) with a rate of 2.4 Gy/min at various dose including 0, 0.5, 1, 2 and 4 Gy in a single fraction. Full electron equilibrium was ensured for each fraction by a parallel plate PR-60C ionization chamber ([…], Inc., Ramsey, N.Y., USA).
# (§5) After radiation treatment, cells were returned to the culture for another 10 to 14 days; then were stained with 3% crystal violet and the numbers of colony (≧50 cells) were counted.
# (§6) The colony is defined to consist of at least 50 cells.
# [5] = system: p-Cdc2 kinase; test: Immunoblot analysis of p-cdc2 kinase in K562R cells; settings: FIG. 9
# Method: as §1
# [6] = system: p-Plk-1; test: Immunoblot analysis of phosphorylated Plk-1 in K562R cells; settings: FIG. 6
# Method: as §1
# [7] = system: PANC-1 cells; test: Radiation treatment and clonogenic assay, PANC-1 cells
# Description: as §4, §5, §6
# [8] = system: p-Chk-2; test: Immunoblot analysis of p-Chk-2 in K562R cells; settings: FIG. 8
# Method: as §1
# [9] = system: imatinib resistant CML K562R cells; test: Cell cycle analysis (flow cytometry) of imatinib resistant CML K562R cells; settings: 24 hours
# Method: The CML cell line, K562R, was cultured in the presence of a continuous low dose of imatinib mesylate, which is also termed STI-571, to generate their resistance to imatinib. In operation, K562R cells were maintained in the DMEM supplemented with 10% fetal calf serum (FCS), 100 IU/ml penicillin, 100 μg/ml streptomycin, 2 mM glutamine and 0.2 μM imatinib in 5% CO2 at 37° C.
# (§7) The fixed cells were then warmed up to room temperature and treated with RNAase A for about 30 min. Precipitated cells were collected by centrifugation and re-suspended in a buffer solution containing propidium iodine (20 μg/ml) before being subject to flow cytometry analysis, where cell numbers at respective cell cycles were determined.
# (§8) The imatinib resistant human chronic myelogenous leukemia (CML) cell line K562R was induced by procedures described above in the “Materials and Methods” Section. Anti-proliferative activity of I7557 and I7557 were respectively assessed by cell viability and cell cycle analysis, as well as by immunoblot and Liu's Staining.
# [10] = system: PANC-1 cells; test: Cell cycle analysis of PANC-1 cells; settings: 24 hours
# Method: as §7
# [11] = system: β-tubulin; test: Immunoblot analysis of β-tubulin in K562R cells; settings: FIG. 4
# Method: as §1
# [12] = system: imatinib resistant CML K562R cells; test: Liu's staining, morphology of imatinib resistant CML K562R cells; settings: 20 μM, indicates apoptosis and mitotic arrest
# Description: as §8
# [13] = system: BE-3 cells; test: MTT cell viability assay on BE-3 cells; design: key to Cell viability (MTT reading), I / Cell viability (MTT reading), II / Cell viability (MTT reading), Average / Cell viability (MTT reading), III: absorbance at 570 nm; settings: for Cell viability (MTT reading), I: replicate I; for Cell viability (MTT reading), II: replicate II
# Method: as §2, §3
# [14] = system: cyclin B1; test: Immunoblot analysis of cyclin B1 in K562R cells; settings: FIG. 5
# Method: as §1
structure (smiles),measurement,setting,value
"CS(=O)(=O)CCCCCCN=C=S [I7557, 6-methylsulfonylhexyl isothiocyanate]",levels of phosphorylated histone H3 vs control cells,[1],significantly higher
same,"Cell viability (MTT reading), Average",[2]; 10 μM,1.514 ± 0.104
same,"Cell viability (MTT reading), I",[2]; 10 μM,1.324
same,"Cell viability (MTT reading), II",[2]; 10 μM,1.682
same,"Cell viability (MTT reading), III",[2]; 10 μM,1.537
same,"Cell viability (MTT reading), Average",[2]; 20 μM,0.965 ± 0.086
same,"Cell viability (MTT reading), I",[2]; 20 μM,0.804
same,"Cell viability (MTT reading), II",[2]; 20 μM,0.991
same,"Cell viability (MTT reading), III",[2]; 20 μM,1.100
same,inhibition at 10 µM,"[2]; Homo sapiens, 10 μM",30.6 ± 5.18%
same,inhibition at 20 µM,"[2]; Homo sapiens, 20 μM",55.4 ± 6.11%
same,level of p-Chk-1 vs control,[3],decreased
same,Number of colonies (clonogenic assay),"[4]; BxPC-3, 5 μM pre-treatment 24 hours, radiation 0 Gy",33
same,Number of colonies (clonogenic assay),"[4]; BxPC-3, 5 μM pre-treatment 24 hours, radiation 0.5 Gy",37
same,Number of colonies (clonogenic assay),"[4]; BxPC-3, 5 μM pre-treatment 24 hours, radiation 1 Gy",39
same,Number of colonies (clonogenic assay),"[4]; BxPC-3, 5 μM pre-treatment 24 hours, radiation 2 Gy",29
same,Number of colonies (clonogenic assay),"[4]; BxPC-3, 5 μM pre-treatment 24 hours, radiation 4 Gy",9
same,Number of colonies (clonogenic assay),"[4]; BxPC-3, 10 μM pre-treatment 24 hours, radiation 0 Gy",16
same,Number of colonies (clonogenic assay),"[4]; BxPC-3, 10 μM pre-treatment 24 hours, radiation 0.5 Gy",15
same,Number of colonies (clonogenic assay),"[4]; BxPC-3, 10 μM pre-treatment 24 hours, radiation 1 Gy",8
same,Number of colonies (clonogenic assay),"[4]; BxPC-3, 10 μM pre-treatment 24 hours, radiation 2 Gy",7
same,Number of colonies (clonogenic assay),"[4]; BxPC-3, 10 μM pre-treatment 24 hours, radiation 4 Gy",1
same,susceptibility of cells to radiation treatment,"[4]; BxPc-3, 10 μM",enhancing the susceptibility
same,level of p-cdc2 kinase vs control,[5],decreased
same,level of phosphorylated Plk-1 vs control,[6],increased
same,Number of colonies (clonogenic assay),"[7]; PANC-1, 5 μM pre-treatment 24 hours, radiation 0 Gy",60
same,Number of colonies (clonogenic assay),"[7]; PANC-1, 5 μM pre-treatment 24 hours, radiation 0.5 Gy",63
same,Number of colonies (clonogenic assay),"[7]; PANC-1, 5 μM pre-treatment 24 hours, radiation 1 Gy",59
same,Number of colonies (clonogenic assay),"[7]; PANC-1, 5 μM pre-treatment 24 hours, radiation 2 Gy",48
same,Number of colonies (clonogenic assay),"[7]; PANC-1, 5 μM pre-treatment 24 hours, radiation 4 Gy",20
same,susceptibility of cells to radiation treatment,"[7]; PANC-1, 10 μM",enhancing the susceptibility
same,Number of colonies (clonogenic assay),"[7]; PANC-1, 10 μM pre-treatment 24 hours, radiation 0 Gy",41
same,Number of colonies (clonogenic assay),"[7]; PANC-1, 10 μM pre-treatment 24 hours, radiation 0.5 Gy",26
same,Number of colonies (clonogenic assay),"[7]; PANC-1, 10 μM pre-treatment 24 hours, radiation 1 Gy",35
same,Number of colonies (clonogenic assay),"[7]; PANC-1, 10 μM pre-treatment 24 hours, radiation 2 Gy",19
same,Number of colonies (clonogenic assay),"[7]; PANC-1, 10 μM pre-treatment 24 hours, radiation 4 Gy",6
same,level of p-Chk-2 vs control,[8],decreased
same,Cell Cycle (%) G0/G1,[9]; 5 μM,30.79 ± 2.28%
same,Cell Cycle (%) G2/M,[9]; 5 μM,22.84 ± 0.60%
same,Cell Cycle (%) S,[9]; 5 μM,46.38 ± 1.73%
same,Cell Cycle (%) Sub-G1%,[9]; 5 μM,0.52 ± 0.07%
same,Cell Cycle (%) G0/G1,[9]; 10 μM,30.52 ± 0.96%
same,Cell Cycle (%) G2/M,[9]; 10 μM,18.40 ± 1.16%
same,Cell Cycle (%) S,[9]; 10 μM,51.08 ± 0.36%
same,Cell Cycle (%) Sub-G1%,[9]; 10 μM,1.18 ± 0.08%
same,Cell Cycle (%) G0/G1,[9]; 20 μM,11.54 ± 6.51%
same,Cell Cycle (%) G2/M,[9]; 20 μM,65.10 ± 8.16%
same,Cell Cycle (%) S,[9]; 20 μM,23.36 ± 2.45%
same,Cell Cycle (%) Sub-G1%,[9]; 20 μM,5.33 ± 1.46%
same,Cell Cycle (%) G0/G1,[10]; 10 μM,45.43 ± 1.27%
same,Cell Cycle (%) G2/M,[10]; 10 μM,28.38 ± 2.41%
same,Cell Cycle (%) S,[10]; 10 μM,26.19 ± 3.28%
same,Cell Cycle (%) Sub-G1%,[10]; 10 μM,0.79 ± 0.05%
same,Cell Cycle (%) G0/G1,[10]; 20 μM,24.71 ± 2.98%
same,Cell Cycle (%) G2/M,[10]; 20 μM,55.84 ± 0.63%
same,Cell Cycle (%) S,[10]; 20 μM,19.45 ± 3.32%
same,Cell Cycle (%) Sub-G1%,[10]; 20 μM,2.05 ± 0.44%
same,β-tubulin levels vs control cells,[11],lowered
same,Cell morphology after Liu's staining,[12],round up with an appearance of a balloon
same,"Cell viability (MTT reading), Average","[13]; BE-3, 10 μM, 48 hours",1.635 ± 0.078
same,"Cell viability (MTT reading), I","[13]; BE-3, 10 μM, 48 hours",1.581
same,"Cell viability (MTT reading), II","[13]; BE-3, 10 μM, 48 hours",1.534
same,"Cell viability (MTT reading), Average","[13]; BE-3, 20 μM, 48 hours",1.151 ± 0.028
same,"Cell viability (MTT reading), I","[13]; BE-3, 20 μM, 48 hours",1.105
same,"Cell viability (MTT reading), II","[13]; BE-3, 20 μM, 48 hours",1.147
same,"Cell viability (MTT reading), III","[13]; BE-3, 20 μM, 48 hours, replicate III",1.201
same,inhibition at 10 µM,"[13]; Homo sapiens, BE-3, 10 μM, 48 hours",26.8 ± 1.05%
same,inhibition at 20 µM,"[13]; Homo sapiens, BE-3, 20 μM, 48 hours, read-out: % of inhibition",48.4 ± 1%
same,inhibition at 20 µM,"[13]; Homo sapiens, BE-3, 20 μM, read-out: cancerous cells' growth inhibition",~50%
same,level of cyclin B1 vs control,[14],increased

# Reference: US8691870B2, “Use of isothiocyanates for treating cancer” (Mackay Memorial Hospital, priority 2011, dated 2014)
